Experimental data taken from ChEMBL document CHEMBL2440076, “New triarylpyrazoles as broad-spectrum anticancer agents: design, synthesis, and biological evaluation” (Eur J Med Chem, 2013).

Experiments:
Format in all cases: functional
[1] = system: MOLT-4; assay: Growth inhibition of human MOLT4 cells assessed as cell growth at 10^-7 M after 48 hrs by sulforhodamine B assay; conditions: MOLT-4, 48 h, read-out: Activity
[2] = system: MCF7; assay: Growth inhibition of human MCF7 cells assessed as cell growth at 10^-4 M after 48 hrs by sulforhodamine B assay; conditions: MCF7, 48 h, read-out: Activity
[3] = system: PC-3; assay: Growth inhibition of human PC3 cells assessed as cell growth at 10^-4 M after 48 hrs by sulforhodamine B assay; conditions: PC-3, 48 h, read-out: Activity
[4] = system: TK-10; assay: Growth inhibition of human TK10 cells assessed as cell growth at 10^-4 M after 48 hrs by sulforhodamine B assay; conditions: TK-10, 48 h, read-out: Activity
[5] = system: MDA-MB-231; assay: Growth inhibition of human MDA-MB-231 cells assessed as cell growth at 10^-8 M after 48 hrs by sulforhodamine B assay; conditions: MDA-MB-231, 48 h, read-out: Activity
[6] = system: 786-0; assay: Growth inhibition of human 786-0 cells assessed as cell growth at 10^-4 M after 48 hrs by sulforhodamine B assay; conditions: 786-0, 48 h, read-out: Activity
[7] = system: HT-29; assay: Growth inhibition of human HT-29 cells assessed as cell growth at 10^-4 M after 48 hrs by sulforhodamine B assay; conditions: HT-29, 48 h, read-out: Activity
[8] = system: PC-3; assay: Growth inhibition of human PC3 cells assessed as cell growth at 10^-8 M after 48 hrs by sulforhodamine B assay; conditions: PC-3, 48 h, read-out: Activity
[9] = system: UO-31; assay: Growth inhibition of human UO31 cells assessed as cell growth at 10^-8 M after 48 hrs by sulforhodamine B assay; conditions: UO-31, 48 h, read-out: Activity
[10] = system: OVCAR-3; assay: Growth inhibition of human OVCAR3 cells assessed as cell growth at 10^-8 M after 48 hrs by sulforhodamine B assay; conditions: OVCAR-3, 48 h, read-out: Activity
[11] = system: Malme-3M; assay: Growth inhibition of human MALME-3M cells assessed as cell growth at 10^-8 M after 48 hrs by sulforhodamine B assay; conditions: read-out: Activity
[12] = Growth inhibition of human HCC2998 cells assessed as cell growth at 10^-8 M after 48 hrs by sulforhodamine B assay; conditions: HCC 2998, 48 h, read-out: Activity
[13] = system: NCI-H522; assay: Growth inhibition of human NCI-H522 cells assessed as cell growth at 10^-8 M after 48 hrs by sulforhodamine B assay; conditions: NCI-H522, 48 h, read-out: Activity
[14] = system: NCI-H226; assay: Growth inhibition of human NCI-H226 cells assessed as cell growth at 10^-8 M after 48 hrs by sulforhodamine B assay; conditions: NCI-H226, 48 h, read-out: Activity
[15] = system: HOP-62; assay: Growth inhibition of human HOP62 cells assessed as cell growth at 10^-8 M after 48 hrs by sulforhodamine B assay; conditions: HOP-62, 48 h, read-out: Activity
[16] = system: NCI-H23; assay: Growth inhibition of human NCI-H23 cells assessed as cell growth at 10^-4 M after 48 hrs by sulforhodamine B assay; conditions: NCI-H23, 48 h, read-out: Activity
[17] = system: K562; assay: Growth inhibition of human K562 cells assessed as cell growth at 10^-4 M after 48 hrs by sulforhodamine B assay; conditions: K562, 48 h, read-out: Activity
[18] = system: MDA-MB-231; assay: Growth inhibition of human MDA-MB-231 cells assessed as cell growth at 10^-5 M after 48 hrs by sulforhodamine B assay; conditions: MDA-MB-231, 48 h, read-out: Activity
[19] = system: PC-3; assay: Growth inhibition of human PC3 cells assessed as cell growth at 10^-5 M after 48 hrs by sulforhodamine B assay; conditions: PC-3, 48 h, read-out: Activity
[20] = system: ACHN; assay: Growth inhibition of human ACHN cells assessed as cell growth at 10^-5 M after 48 hrs by sulforhodamine B assay; conditions: read-out: Activity
[21] = system: SK-MEL-5; assay: Growth inhibition of human SK-MEL-5 cells assessed as cell growth at 10^-5 M after 48 hrs by sulforhodamine B assay; conditions: SK-MEL-5, 48 h, read-out: Activity
[22] = system: HOP-62; assay: Growth inhibition of human HOP62 cells assessed as cell growth at 10^-5 M after 48 hrs by sulforhodamine B assay; conditions: HOP-62, 48 h, read-out: Activity
[23] = system: K562; assay: Growth inhibition of human K562 cells assessed as cell growth at 10^-5 M after 48 hrs by sulforhodamine B assay; conditions: K562, 48 h, read-out: Activity
[24] = system: MCF7; assay: Growth inhibition of human MCF7 cells assessed as cell growth at 10^-6 M after 48 hrs by sulforhodamine B assay; conditions: MCF7, 48 h, read-out: Activity
[25] = system: CAKI-1; assay: Growth inhibition of human CAKI-1 cells assessed as cell growth at 10^-6 M after 48 hrs by sulforhodamine B assay; conditions: CAKI-1, 48 h, read-out: Activity
[26] = system: OVCAR-4; assay: Growth inhibition of human OVCAR4 cells assessed as cell growth at 10^-6 M after 48 hrs by sulforhodamine B assay; conditions: OVCAR-4, 48 h, read-out: Activity
[27] = system: IGROV-1; assay: Growth inhibition of human IGROV1 cells assessed as cell growth at 10^-6 M after 48 hrs by sulforhodamine B assay; conditions: IGROV-1, 48 h, read-out: Activity
[28] = system: HT-29; assay: Growth inhibition of human HT-29 cells assessed as cell growth at 10^-6 M after 48 hrs by sulforhodamine B assay; conditions: HT-29, 48 h, read-out: Activity
[29] = system: COLO 205; assay: Growth inhibition of human COLO205 cells assessed as cell growth at 10^-6 M after 48 hrs by sulforhodamine B assay; conditions: COLO 205, 48 h, read-out: Activity
[30] = system: HOP-92; assay: Growth inhibition of human HOP92 cells assessed as cell growth at 10^-6 M after 48 hrs by sulforhodamine B assay; conditions: HOP-92, 48 h, read-out: Activity
[31] = system: SR; assay: Growth inhibition of human SR cells assessed as cell growth at 10^-6 M after 48 hrs by sulforhodamine B assay; conditions: read-out: Activity
[32] = system: RPMI-8226; assay: Growth inhibition of human RPMI8226 cells assessed as cell growth at 10^-6 M after 48 hrs by sulforhodamine B assay; conditions: RPMI-8226, 48 h, read-out: Activity
[33] = system: SN12C; assay: Growth inhibition of human SN12C cells assessed as cell growth at 10^-7 M after 48 hrs by sulforhodamine B assay; conditions: read-out: Activity
[34] = system: CAKI-1; assay: Growth inhibition of human CAKI-1 cells assessed as cell growth at 10^-7 M after 48 hrs by sulforhodamine B assay; conditions: CAKI-1, 48 h, read-out: Activity
[35] = system: ACHN; assay: Growth inhibition of human ACHN cells assessed as cell growth at 10^-7 M after 48 hrs by sulforhodamine B assay; conditions: read-out: Activity
[36] = system: OVCAR-4; assay: Growth inhibition of human OVCAR4 cells assessed as cell growth at 10^-7 M after 48 hrs by sulforhodamine B assay; conditions: OVCAR-4, 48 h, read-out: Activity
[37] = system: IGROV-1; assay: Growth inhibition of human IGROV1 cells assessed as cell growth at 10^-7 M after 48 hrs by sulforhodamine B assay; conditions: IGROV-1, 48 h, read-out: Activity
[38] = system: SK-MEL-5; assay: Growth inhibition of human SK-MEL-5 cells assessed as cell growth at 10^-7 M after 48 hrs by sulforhodamine B assay; conditions: SK-MEL-5, 48 h, read-out: Activity
[39] = system: SK-MEL-2; assay: Growth inhibition of human SK-MEL-2 cells assessed as cell growth at 10^-7 M after 48 hrs by sulforhodamine B assay; conditions: SK-MEL-2, 48 h, read-out: Activity

Row | Compound | growth at 0.1 µM [1] [%] | growth at 100 µM [2] [%] | growth at 100 µM [3] [%] | growth at 100 µM [4] [%] | growth at 0.01 µM [5] [%] | growth at 100 µM [6] [%] | growth at 100 µM [7] [%] | growth at 0.01 µM [8] [%] | growth at 0.01 µM [9] [%] | growth at 0.01 µM [10] [%] | growth at 0.01 µM [11] [%] | growth at 0.01 µM [12] [%] | growth at 0.01 µM [13] [%] | growth at 0.01 µM [14] [%] | growth at 0.01 µM [15] [%] | growth at 100 µM [16] [%] | growth at 100 µM [17] [%] | growth at 10 µM [18] [%] | growth at 10 µM [19] [%] | growth at 10 µM [20] [%] | other results
1 | COc1cc(-c2nn(-c3cccc(NC(=O)c4ccc(N5CCOCC5)c(C(F)(F)F)c4)c3)cc2-c2ccncc2)ccc1Cl | 105 | 8 | -5 | -7 | 95 | 3 | -43 | 92 | 91 | 110 | 103 | 101 | 97 | 102 | 96 | -9 | 3 | -30 | 1 | 2 | growth at 10 µM [21]: -55%; growth at 10 µM [22]: 31%; growth at 10 µM [23]: 2%; growth at 1 µM [24]: 18%; growth at 1 µM [25]: 21%; growth at 1 µM [26]: 49%; growth at 1 µM [27]: 33%; growth at 1 µM [28]: 9%; growth at 1 µM [29]: 5%; growth at 1 µM [30]: -5%; growth at 1 µM [31]: 8%; growth at 1 µM [32]: 16%; growth at 0.1 µM [33]: 90%; growth at 0.1 µM [34]: 87%; growth at 0.1 µM [35]: 83%; growth at 0.1 µM [36]: 92%; growth at 0.1 µM [37]: 81%; growth at 0.1 µM [38]: 53%; growth at 0.1 µM [39]: 73%
2 | COc1cc(-c2nn(-c3cccc(NC(=O)c4ccccc4)c3)cc2-c2ccncc2)ccc1Cl | 99 | 7 | 3 | 23 | 103 | 18 | 4 | 94 | 92 | 103 | 98 | 97 | 91 | 97 | 94 | 18 | 11 | 7 | 13 | 26 | growth at 10 µM [21]: -60%; growth at 10 µM [22]: 48%; growth at 10 µM [23]: 10%; growth at 1 µM [24]: 17%; growth at 1 µM [25]: 52%; growth at 1 µM [26]: 51%; growth at 1 µM [27]: 35%; growth at 1 µM [28]: 17%; growth at 1 µM [29]: 32%; growth at 1 µM [30]: 15%; growth at 1 µM [31]: 7%; growth at 1 µM [32]: 46%; growth at 0.1 µM [33]: 98%; growth at 0.1 µM [34]: 99%; growth at 0.1 µM [35]: 95%; growth at 0.1 µM [36]: 95%; growth at 0.1 µM [37]: 91%; growth at 0.1 µM [38]: 91%; growth at 0.1 µM [39]: 90%
